Measured values: the supplement of paper PMC6045584
± gives the standard deviation of the averaged measurements.

Tests used:
MLN-4924 = compound: NS(=O)(=O)OC[C@@H]1C[C@@H](n2ccc3c(N[C@H]4CCc5ccccc54)ncnc32)C[C@@H]1O [MLN-4924]; experiment: surviving fraction relative to DMSO-only wells; higher = less growth inhibition; conditions: exposure time: 5 days
Procedure, shortened: (§1)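 Log-phase tumour cell lines, 250–500 cells per well in 384-well plates, received inhibitors at 0.5, 1, 5, 10, 50, 100, 500 and 1000 nM continuously for five days, starting 24 hours after seeding. Viability was quantified with CellTiter-Glo luminescence and normalised to the median of DMSO-only wells to give surviving fraction. Three screens were run per line, and a line stayed in only with replicate Pearson r >0.7 and median Z' >0.3.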

FORETINIB = compound: COc1cc2c(Oc3ccc(NC(=O)C4(C(=O)Nc5ccc(F)cc5)CC4)cc3F)ccnc2cc1OCCCN1CCOCC1 [FORETINIB]; experiment: as above; conditions: exposure time: 5 days
Procedure, shortened: as §1

| Test System | surviving fraction (MLN-4924; 0.5 nM) | surviving fraction (MLN-4924; 1 nM) | surviving fraction (MLN-4924; 5 nM) | surviving fraction (MLN-4924; 10 nM) | surviving fraction (MLN-4924; 50 nM) | surviving fraction (MLN-4924; 100 nM) | surviving fraction (MLN-4924; 500 nM) | surviving fraction (MLN-4924; 1000 nM) | surviving fraction (FORETINIB; 0.5 nM) | surviving fraction (FORETINIB; 1 nM) | surviving fraction (FORETINIB; 5 nM) | surviving fraction (FORETINIB; 10 nM) | surviving fraction (FORETINIB; 50 nM) | surviving fraction (FORETINIB; 100 nM) | surviving fraction (FORETINIB; 500 nM) | surviving fraction (FORETINIB; 1000 nM) |
| --- | --- | --- | --- | --- | --- | --- | --- | --- | --- | --- | --- | --- | --- | --- | --- | --- |
| SYO1 SYNOVIAL | 0.996 ± 0.05 | 0.996 ± 0.029 | 1.01 ± 0.039 | 0.992 ± 0.03 | 0.65 ± 0.019 | 0.334 ± 0.028 | 0.0614 ± 0.0023 | 0.0519 ± 0.0031 | 0.989 ± 0.038 | 0.971 ± 0.05 | 0.929 ± 0.026 | 0.914 ± 0.027 | 0.821 ± 0.013 | 0.749 ± 0.028 | 0.25 ± 0.0099 | 0.189 ± 0.026 |
| T47D BREAST | 1.04 ± 0.012 | 1.02 ± 0.021 | 0.916 ± 0.036 | 0.835 ± 0.037 | 0.67 ± 0.023 | 0.694 ± 0.011 | 0.279 ± 0.019 | 0.27 ± 0.028 | 1.02 ± 0.032 | 1.08 ± 0.056 | 1.08 ± 0.023 | 1.08 ± 0.029 | 1.04 ± 0.025 | 1.08 ± 0.04 | 0.897 ± 0.064 | 0.898 ± 0.028 |
| U2OS BONE | 1.028 ± 0.0045 | 1.01 ± 0.015 | 0.988 ± 0.04 | 1.03 ± 0.049 | 1.04 ± 0.036 | 0.859 ± 0.022 | 0.403 ± 0.028 | 0.176 ± 0.015 | 1.03 ± 0.018 | 1 ± 0.021 | 1.04 ± 0.034 | 1.01 ± 0.037 | 1.03 ± 0.059 | 0.958 ± 0.03 | 0.558 ± 0.028 | 0.344 ± 0.024 |
| VCAP PROSTATE | 0.977 ± 0.06 | 1.08 ± 0.074 | 1.08 ± 0.15 | 0.926 ± 0.035 | 0.526 ± 0.029 | 0.401 ± 0.088 | 0.198 ± 0.046 | 0.169 ± 0.079 | 0.975 ± 0.059 | 0.96 ± 0.13 | 1.12 ± 0.094 | 1.03 ± 0.082 | 1.11 ± 0.1 | 1.08 ± 0.2 | 0.547 ± 0.09 | 0.4 ± 0.044 |
| VP229 BREAST | 1.07 ± 0.16 | 1.08 ± 0.19 | 1.17 ± 0.028 | 1.14 ± 0.22 | 1.04 ± 0.033 | 0.891 ± 0.12 | 0.233 ± 0.082 | 0.127 ± 0.022 | 1.31 ± 0.085 | 1.09 ± 0.11 | 1.13 ± 0.14 | 1.07 ± 0.1 | 1.14 ± 0.11 | 1.05 ± 0.15 | 0.808 ± 0.14 | 0.616 ± 0.15 |
| YAMATO SYNOVIAL | 1.33 ± 0.091 | 1.25 ± 0.019 | 1.33 ± 0.085 | 1.31 ± 0.21 | 1.21 ± 0.11 | 0.805 ± 0.058 | 0.637 ± 0.041 | 0.492 ± 0.045 | 0.998 ± 0.072 | 1.16 ± 0.098 | 1 ± 0.12 | 1.02 ± 0.078 | 0.585 ± 0.025 | 0.369 ± 0.035 | 0.295 ± 0.017 | 0.272 ± 0.018 |
| ZR751 BREAST | 1.23 ± 0.056 | 1.08 ± 0.17 | 1.13 ± 0.13 | 1.24 ± 0.036 | 1.06 ± 0.13 | 1.03 ± 0.092 | 0.784 ± 0.11 | 0.669 ± 0.063 | 1.04 ± 0.21 | 1.12 ± 0.12 | 0.969 ± 0.1 | 1.06 ± 0.16 | 0.963 ± 0.06 | 1.07 ± 0.062 | 0.902 ± 0.062 | 0.783 ± 0.1 |
